Source: US8022091B2, “Triazole derivative” (Taisho Pharmaceutical Co., Ltd., priority 2006, dated 2011)

Experiments:
human Edg-1 (S1P1) = biological target: T1, human Edg-1 (S1P1) (Homo sapiens, UniProt P21453); test: S1P1 binding assay: inhibition of [33P]-S1P binding to membrane fraction of HEK-293 cells transferred with the human Edg-1 (S1P1) gene; conditions: for IC50: [33P]-S1P 0.1 nM, human Edg-1 (S1P1) HEK-293 membrane fraction, 1 h at 30° C., read-out: IC50 (concentration at which binding in the absence of the test compound was inhibited by 50%)
T1 construct: expressed in transfected cells; host or cells: HEK-293
In short: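 With 0.1 nM [33P]-S1P and compound (10^−5M single point, or a concentration range for IC50) in 0.1% DMSO, membrane fractions from human Edg-1-expressing HEK-293 cells were treated for one hour at 30° C in 20 mM Tris-HCl pH 7.4 with NaF, deoxypyridoxine and BSA. Bound label was measured after filtration, with untransfected-cell background subtracted.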

[1] = test compound at 10 μM, inhibition of [33P]-S1P binding to the membrane fraction of HEK-293 cells expressing human Edg-1 (S1P1)
[2] = test compound 10 μM, inhibition of [33P]-S1P binding, membrane fraction

T1 sequence (P21453 whole entry): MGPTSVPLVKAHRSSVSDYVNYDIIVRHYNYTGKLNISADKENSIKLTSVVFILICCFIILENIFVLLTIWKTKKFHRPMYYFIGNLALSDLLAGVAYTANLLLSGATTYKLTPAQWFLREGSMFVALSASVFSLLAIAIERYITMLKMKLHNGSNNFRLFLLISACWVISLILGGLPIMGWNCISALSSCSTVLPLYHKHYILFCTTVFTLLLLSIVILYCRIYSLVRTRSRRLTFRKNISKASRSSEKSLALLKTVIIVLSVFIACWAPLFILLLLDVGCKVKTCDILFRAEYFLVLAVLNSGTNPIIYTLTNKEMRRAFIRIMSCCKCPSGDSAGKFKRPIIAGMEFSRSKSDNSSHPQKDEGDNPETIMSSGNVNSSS

Row | Compound | melting point | inhibition at 10 µM (human Edg-1 (S1P1); [1]) | Binding assay (membrane) % inhibition (10 μM) (human Edg-1 (S1P1); [1]) | IC50 (human Edg-1 (S1P1)) | inhibition at 10 µM (human Edg-1 (S1P1); [2])
1 | CCn1c(Oc2ccccc2)nnc1[C@@H](Cc1ccccc1)NS(=O)(=O)c1ccc(Cl)c(Cl)c1 [Compound 1] | 182 to 184 °C | 93.4% | 100.8% |  | 
2 | CCn1c(Sc2ccccc2)nnc1[C@@H](Cc1ccccc1)NS(=O)(=O)c1ccc(Cl)c(Cl)c1 [Compound 2] | 134 to 138 °C | 103% | 97.8% |  | 
3 | CCn1c(Oc2ccccc2C)nnc1[C@@H](C)NS(=O)(=O)c1ccc(Cl)c(Cl)c1 [Compound 4] | 198.5 to 200.5 °C | 95.7% |  |  | 
4 | CCn1c(Oc2ccccc2Cl)nnc1[C@@H](C)NS(=O)(=O)c1ccc(Cl)c(Cl)c1 [Compound 6] | 180 to 190 °C | 98.2% |  |  | 
5 | CCn1c(Oc2ccccc2)nnc1[C@@H](C)NS(=O)(=O)c1ccc(Cl)c(Cl)c1 [Compound 7] | 159.5 to 161.5 °C | 99.4% |  | 35.5 nM | 
6 | CCn1c(Oc2ccc(Cl)cc2)nnc1[C@@H](C)NS(=O)(=O)c1ccc(Cl)c(Cl)c1 [Compound 8] | 179 to 189.5 °C | 100% |  | 18.5 nM | 
7 | CCn1c(Oc2ccc(OC)cc2)nnc1[C@@H](C)NS(=O)(=O)c1ccc(Cl)c(Cl)c1 [Compound 11] | 155 to 160 °C | 98.5% |  | 8.9 nM | 
8 | CCn1c(Oc2ccc(F)cc2)nnc1[C@@H](C)NS(=O)(=O)c1ccc(Cl)c(Cl)c1 [Compound 12, 3,4-Dichloro-N-{(R)-1-[4-ethyl-5-(4-fluorophenoxy)-4H-[1,2,4]-triazol-3-yl]ethyl}benzenesulfonamide] | 190 to 192 °C | 99.2% |  | 20 nM | 
9 | CCn1c(Oc2cccc(N3CCN(C)CC3)c2)nnc1[C@@H](C)NS(=O)(=O)c1cccc(Cl)c1F [Compound 621] |  |  |  |  | 95.4%
10 | CCn1c(Oc2cccc(N3CCN(C)CC3)c2)nnc1[C@@H](C)NS(=O)(=O)c1ccc(F)cc1C(F)(F)F [Compound 622] |  |  |  |  | 58.9%
11 | CCn1c(Oc2cccc(N3CCN(C)CC3)c2)nnc1[C@@H](C)NS(=O)(=O)c1ccccc1OC [Compound 626] |  |  |  |  | 61.1%
12 | CCCCCCCCCCS(=O)(=O)N[C@H](C)c1nnc(Oc2cccc(N3CCN(C)CC3)c2)n1CC [Compound 628] |  |  |  |  | 64.4%
13 | CCn1c(Oc2cccc(N3CCN(C)CC3)c2)nnc1[C@@H](C)NS(=O)(=O)c1ccc2c(c1)OCCO2 [Compound 630] |  |  |  |  | 107%
14 | CCn1c(Oc2cccc(N3CCN(C)CC3)c2)nnc1[C@@H](C)NS(=O)(=O)c1sc(C)nc1C [Compound 631] |  |  |  |  | 95.2%
15 | CCn1c(Oc2cccc(N3CCN(C)CC3)c2)nnc1[C@@H](C)NS(=O)(=O)c1ccc2nsnc2c1 [Compound 633] |  |  |  |  | 111%
16 | CCn1c(Oc2cccc(N3CCN(C)CC3)c2)nnc1[C@@H](C)NS(=O)(=O)c1ccsc1 [Compound 635] |  |  |  |  | 68.7%
17 | CCn1c(Oc2cccc(N3CCN(C)CC3)c2)nnc1[C@@H](C)NS(=O)(=O)c1ccc(-c2cnco2)s1 [Compound 636] |  |  |  |  | 85.7%

Next, values leading:

Row | melting point | inhibition at 10 µM (human Edg-1 (S1P1); [1]) | Binding assay (membrane) % inhibition (10 μM) (human Edg-1 (S1P1); [1]) | IC50 (human Edg-1 (S1P1)) | inhibition at 10 µM (human Edg-1 (S1P1); [2]) | Compound
18 | 183.5 to 187.5 °C | 98.7% |  | 4.2 nM |  | CCn1c(Oc2ccc(C)cc2)nnc1[C@@H](C)NS(=O)(=O)c1ccc(Cl)c(Cl)c1 [Compound 3]
19 | 160 to 161 °C | 97.3% |  | ≤ 35 nM |  | CCn1c(Oc2cccc(C)c2)nnc1[C@@H](C)NS(=O)(=O)c1ccc(Cl)c(Cl)c1 [Compound 5]
20 | 145 to 148 °C | 100% |  |  |  | CCn1c(Oc2cccc(Cl)c2)nnc1[C@@H](C)NS(=O)(=O)c1ccc(Cl)c(Cl)c1 [Compound 9]
21 | 182.5 to 184.5 °C | 99.8% |  | 17.5 nM |  | CCn1c(Oc2ccc(C)cc2)nnc1[C@@H](Cc1ccccc1)NS(=O)(=O)c1ccc(Cl)c(Cl)c1 [Compound 10]
22 | 152 to 156 °C | 102% |  | ≤ 35 nM |  | CCn1c(Oc2ccc(Cl)c(Cl)c2)nnc1[C@@H](C)NS(=O)(=O)c1ccc(Cl)c(Cl)c1 [Compound 13]
23 | 164 to 165 °C |  |  |  |  | CCn1c([C@@H](C)NS(=O)(=O)c2ccc(Cl)c(Cl)c2)nnc1S(=O)(=O)c1ccc(C)cc1 [Compound 57, 3,4-Dichloro-N-[(R)-1-[4-ethyl-5(4-methylbenzenesulfonyl)-4H-[1,2,4]triazol-3-yl]-ethyl]-benzenesulfonamide]
24 |  |  |  |  | 90% | CCn1c(Oc2cccc(N3CCN(C)CC3)c2)nnc1[C@@H](C)NS(=O)(=O)CC1CCCCC1 [Compound 627]
25 |  |  |  |  | 101% | CCn1c(Oc2cccc(N3CCN(C)CC3)c2)nnc1[C@@H](C)NS(=O)(=O)c1cc(C)oc1C(F)(F)F [Compound 629]
26 |  |  |  |  | 59.9% | CCn1c(Oc2cccc(N3CCN(C)CC3)c2)nnc1[C@@H](C)NS(=O)(=O)c1cccc2nsnc12 [Compound 632]
27 |  |  |  |  | 51% | CCn1c(Oc2cccc(N3CCN(C)CC3)c2)nnc1[C@@H](C)NS(=O)(=O)c1cccc2nonc12 [Compound 634]
